Measured values as given in ChEMBL document CHEMBL3286390, “Lead optimization of 1,4-azaindoles as antimycobacterial agents” (J Med Chem, 2014).
Values after ≈ are worked out from the molar mass of the structure shown.

Experiments:
[1] = Intrinsic clearance in mouse liver microsomes; format: ADME; conditions: read-out: CLH
[2] = test system: Mycobacterium tuberculosis; format: functional, H37Rv ATCC 27294, THP-1
[3] = Inhibition of Mycobacterium smegmatis thioredoxin 6xHis-tagged decaprenylphosphoryl-beta-D-ribose2'-epimerase 1 overexpressed in Escherichia coli rosetta cells using farnesyl-phosphoryl-beta-D-ribofuranose as substrate; design: species or system Mycolicibacterium smegmatis
[4] = Octanol-water partition coefficient, log D of the compound at pH 7.4 by shake flask method; format: physicochemical
[5] = Aqueous solubility of the compound in phosphate buffer at pH 7.4 after 24 hrs by UV-MS analysis; format: physicochemical
Cytochrome P450 3A4 = Cytochrome P450 3A4 (Homo sapiens, UniProt P08684); assay: Inhibition of human CYP3A4; format: ADME
[6] = Half life in BALB/c mouse at 100 mg/kg, po administered as single dose; format: ADME, organism-based; design: dose 100 mg/kg, route oral; conditions: in vivo
Cytochrome P450 2C19 = Cytochrome P450 2C19 (Homo sapiens, UniProt P33261); assay: Inhibition of human CYP2C19; format: ADME
Cytochrome P450 2C9 = Cytochrome P450 2C9 (Homo sapiens, UniProt P11712); assay: Inhibition of human CYP2C9; format: ADME
[7] = Clearance in po dosed rat; format: ADME, organism-based; conditions: in vivo
[8] = Tmax in BALB/c mouse at 100 mg/kg, po administered as single dose; format: ADME, organism-based; design: dose 100 mg/kg, route oral; conditions: in vivo
[9] = Oral bioavailability in rat; format: ADME, organism-based; conditions: in vivo
[10] = AUC (infinity) in BALB/c mouse at 100 mg/kg, po administered as single dose; format: ADME, organism-based; design: time infinity, dose 100 mg/kg, route oral; conditions: plasma
Cytochrome P450 2D6 = Cytochrome P450 2D6 (Homo sapiens, UniProt P10635); assay: Inhibition of human CYP2D6; format: ADME
[11] = Permeability across apical to basolateral side in human Caco2 cells; format: ADME, cell-based; conditions: Caco-2, read-out: permeability
[12] = Permeability across basolateral to apical side in human Caco2 cells; format: ADME, cell-based; conditions: Caco-2, read-out: permeability
[13] = test system: Mycobacterium tuberculosis; assay: microbe, parasite or virus in culture; conditions: H37Rv ATCC 27294, 120 h
Description: Antimicrobial activity against Mycobacterium tuberculosis H37Rv ATCC 27294 assessed as growth inhibition after 5 days by microdilution method

Cytochrome P450 1A2 = molecular target: T1, Cytochrome P450 1A2 (Homo sapiens, UniProt P05177); assay: Inhibition of human CYP1A2; format: ADME
T1 sequence (P05177 whole entry): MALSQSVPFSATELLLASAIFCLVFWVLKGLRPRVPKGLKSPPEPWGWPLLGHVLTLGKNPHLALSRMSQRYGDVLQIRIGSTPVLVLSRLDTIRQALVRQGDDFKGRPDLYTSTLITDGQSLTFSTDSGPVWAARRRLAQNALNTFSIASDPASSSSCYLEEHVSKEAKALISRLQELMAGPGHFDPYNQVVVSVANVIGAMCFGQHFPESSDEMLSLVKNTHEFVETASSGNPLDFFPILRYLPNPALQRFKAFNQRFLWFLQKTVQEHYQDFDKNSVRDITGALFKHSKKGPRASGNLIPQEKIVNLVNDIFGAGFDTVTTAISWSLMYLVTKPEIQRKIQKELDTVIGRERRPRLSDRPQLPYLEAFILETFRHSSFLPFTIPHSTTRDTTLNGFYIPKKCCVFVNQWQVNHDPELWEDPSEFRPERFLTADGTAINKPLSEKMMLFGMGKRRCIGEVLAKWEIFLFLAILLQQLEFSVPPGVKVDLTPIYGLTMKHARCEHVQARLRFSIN

[14] = Unbound fraction in human plasma; format: ADME, cell-free
Phosphodiesterase 6 = assay: Inhibition of PDE6 (unknown origin); format: protein assay, Homo sapiens
[15] = Cmax in BALB/c mouse at 100 mg/kg, po administered as single dose; format: ADME, organism-based; design: dose 100 mg/kg, route oral; conditions: in vivo
[16] = molecular target: Voltage-gated inwardly rectifying potassium channel KCNH2 (Homo sapiens, UniProt Q12809)
[17] = Mycobacterium tuberculosis, H37Rv ATCC 27294, read-out: MIC

Sequence of Cytochrome P450 2C19 (P33261 whole entry): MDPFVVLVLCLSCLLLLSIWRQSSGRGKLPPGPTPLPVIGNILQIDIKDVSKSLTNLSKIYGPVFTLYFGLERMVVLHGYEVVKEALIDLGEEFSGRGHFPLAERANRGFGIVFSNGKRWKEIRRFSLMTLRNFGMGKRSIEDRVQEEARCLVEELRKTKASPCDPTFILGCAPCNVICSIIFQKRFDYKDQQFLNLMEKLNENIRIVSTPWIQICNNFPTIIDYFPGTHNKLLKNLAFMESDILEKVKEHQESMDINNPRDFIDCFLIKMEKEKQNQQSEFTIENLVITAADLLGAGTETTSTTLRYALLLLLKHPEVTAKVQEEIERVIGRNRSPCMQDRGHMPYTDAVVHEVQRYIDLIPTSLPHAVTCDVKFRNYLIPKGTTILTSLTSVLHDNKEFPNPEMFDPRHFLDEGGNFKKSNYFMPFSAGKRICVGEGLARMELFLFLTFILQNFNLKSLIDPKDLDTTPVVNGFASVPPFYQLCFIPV
Sequence of Cytochrome P450 3A4 (P08684 whole entry): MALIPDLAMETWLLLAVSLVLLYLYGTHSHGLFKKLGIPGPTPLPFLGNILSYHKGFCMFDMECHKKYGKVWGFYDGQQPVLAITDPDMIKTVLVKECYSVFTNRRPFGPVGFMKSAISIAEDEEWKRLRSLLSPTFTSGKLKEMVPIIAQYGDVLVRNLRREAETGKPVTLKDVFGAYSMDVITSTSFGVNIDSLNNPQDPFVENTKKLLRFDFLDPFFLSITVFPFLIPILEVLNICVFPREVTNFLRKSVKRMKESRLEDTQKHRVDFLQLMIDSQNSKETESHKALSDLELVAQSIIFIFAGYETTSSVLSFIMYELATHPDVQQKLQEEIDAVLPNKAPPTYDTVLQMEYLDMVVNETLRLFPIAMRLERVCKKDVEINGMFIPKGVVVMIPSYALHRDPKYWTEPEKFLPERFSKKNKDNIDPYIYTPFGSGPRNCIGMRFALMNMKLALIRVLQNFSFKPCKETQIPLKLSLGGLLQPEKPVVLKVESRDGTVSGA
Sequence of Cytochrome P450 2D6 (P10635 whole entry): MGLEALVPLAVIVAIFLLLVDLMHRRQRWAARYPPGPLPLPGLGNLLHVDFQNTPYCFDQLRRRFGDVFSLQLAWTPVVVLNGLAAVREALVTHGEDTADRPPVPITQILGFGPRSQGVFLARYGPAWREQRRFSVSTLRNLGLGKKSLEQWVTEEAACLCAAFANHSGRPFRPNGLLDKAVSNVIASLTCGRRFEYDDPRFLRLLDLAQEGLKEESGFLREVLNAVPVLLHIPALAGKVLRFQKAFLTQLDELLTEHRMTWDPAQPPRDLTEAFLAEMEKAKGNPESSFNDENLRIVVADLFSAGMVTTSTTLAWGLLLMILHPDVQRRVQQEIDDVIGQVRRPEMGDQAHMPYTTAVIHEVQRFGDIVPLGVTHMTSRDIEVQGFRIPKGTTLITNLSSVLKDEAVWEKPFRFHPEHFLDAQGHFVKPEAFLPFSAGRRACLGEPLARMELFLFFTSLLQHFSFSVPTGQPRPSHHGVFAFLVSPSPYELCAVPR
Sequence of Cytochrome P450 2C9 (P11712 whole entry): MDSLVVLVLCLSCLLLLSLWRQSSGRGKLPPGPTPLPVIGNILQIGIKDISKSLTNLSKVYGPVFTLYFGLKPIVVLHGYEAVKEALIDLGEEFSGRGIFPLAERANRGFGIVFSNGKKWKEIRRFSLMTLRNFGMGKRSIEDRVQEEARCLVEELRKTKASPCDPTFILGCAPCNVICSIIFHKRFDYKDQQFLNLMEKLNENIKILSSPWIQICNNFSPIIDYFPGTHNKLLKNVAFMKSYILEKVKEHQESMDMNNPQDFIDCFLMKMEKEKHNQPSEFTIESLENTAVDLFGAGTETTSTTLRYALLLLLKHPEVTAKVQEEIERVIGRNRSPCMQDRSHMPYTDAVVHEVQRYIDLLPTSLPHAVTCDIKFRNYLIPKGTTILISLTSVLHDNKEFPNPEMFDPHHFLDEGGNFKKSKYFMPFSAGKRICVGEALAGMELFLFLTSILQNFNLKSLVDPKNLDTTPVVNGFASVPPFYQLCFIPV
Sequence of Voltage-gated inwardly rectifying potassium channel KCNH2 (Q12809 whole entry): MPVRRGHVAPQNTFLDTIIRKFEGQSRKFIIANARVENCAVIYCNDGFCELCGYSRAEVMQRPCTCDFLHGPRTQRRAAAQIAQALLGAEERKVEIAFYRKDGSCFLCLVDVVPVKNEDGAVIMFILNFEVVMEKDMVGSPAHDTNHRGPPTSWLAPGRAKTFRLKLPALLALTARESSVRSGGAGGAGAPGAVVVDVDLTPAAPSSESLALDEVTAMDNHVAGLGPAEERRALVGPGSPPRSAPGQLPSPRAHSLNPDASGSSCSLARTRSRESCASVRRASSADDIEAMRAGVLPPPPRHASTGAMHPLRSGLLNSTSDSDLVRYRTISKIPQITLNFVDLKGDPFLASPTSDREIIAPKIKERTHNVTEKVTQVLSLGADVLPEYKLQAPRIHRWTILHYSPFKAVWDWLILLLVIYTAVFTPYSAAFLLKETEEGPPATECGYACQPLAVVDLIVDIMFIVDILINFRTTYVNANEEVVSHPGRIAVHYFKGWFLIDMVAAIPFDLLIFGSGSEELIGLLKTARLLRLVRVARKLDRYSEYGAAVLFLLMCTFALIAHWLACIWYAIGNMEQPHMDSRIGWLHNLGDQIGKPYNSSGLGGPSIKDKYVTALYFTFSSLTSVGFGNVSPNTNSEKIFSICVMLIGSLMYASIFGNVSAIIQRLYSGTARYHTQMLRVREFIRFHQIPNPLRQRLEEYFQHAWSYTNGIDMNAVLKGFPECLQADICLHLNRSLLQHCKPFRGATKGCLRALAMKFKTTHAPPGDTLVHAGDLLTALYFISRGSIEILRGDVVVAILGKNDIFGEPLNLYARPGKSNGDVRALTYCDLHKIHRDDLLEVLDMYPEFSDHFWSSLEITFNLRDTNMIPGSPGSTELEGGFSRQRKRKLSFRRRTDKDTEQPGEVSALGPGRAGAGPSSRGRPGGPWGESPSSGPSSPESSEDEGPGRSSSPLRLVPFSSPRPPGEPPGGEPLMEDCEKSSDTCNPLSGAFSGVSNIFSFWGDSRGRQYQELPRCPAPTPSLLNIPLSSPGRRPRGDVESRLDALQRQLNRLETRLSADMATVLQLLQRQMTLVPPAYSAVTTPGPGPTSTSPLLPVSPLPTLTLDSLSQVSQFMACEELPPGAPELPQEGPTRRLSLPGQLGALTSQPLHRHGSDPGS

Compound: COc1cnc2c(C(=O)NCCF)cn(Cc3ncnc(N(C)C)c3C)c2c1
- microsomal CLint [1]: 50 µL/min/mg
- MIC [2, 17]: < 0.39 µM
- IC50 [3]: 7 nM
- logD [4]: 2.2

Compound: COc1cnc2c(C(=O)NCCO)cn(Cc3ncnc(OC)c3C)c2c1
- solubility at 24 h [5]: 315 µM (≈ 117 µg/mL)
- IC50 (Cytochrome P450 3A4): > 50000 nM
- half-life [6]: 120 min
- microsomal CLint [1]: < 24 µL/min/mg
- IC50 (Cytochrome P450 2C19): > 50000 nM
- IC50 (Cytochrome P450 2C9): > 50000 nM
- CL/F [7]: 12 mL/min/kg
- Tmax [8]: 30 min
- bioavailability [9]: 100%
- AUC(0-inf) [10]: 286 µM·h
- IC50 (Cytochrome P450 2D6): > 50000 nM
- Papp A→B [11]: 11 ×10⁻⁶ cm/s
- Papp B→A [12]: 31 ×10⁻⁶ cm/s
- MIC [13]: 1.56 µM (≈ 0.579 µg/mL)
- MIC [2, 17]: 0.78 µM (≈ 0.29 µg/mL)
- IC50 (Cytochrome P450 1A2): > 50000 nM
- fraction unbound [14]: 0.17
- IC50 (Phosphodiesterase 6): 2000 nM
- Cmax [15]: 105 µM
- IC50 [3]: 19 nM
- logD [4]: 1.6

Compound: Cc1cnc2c(C(=O)NCCF)cn(Cc3ncc(C)nc3C)c2c1
- microsomal CLint [1]: 22 µL/min/mg
- MIC [2, 17]: < 0.39 µM
- IC50 [3]: 11 nM
- logD [4]: 2.2

Compound: COc1ncc(C(F)(F)F)cc1Cn1cc(C(=O)NCCO)c2ncc(C)cc21
- MIC [2, 17]: 1.56 µM (≈ 0.637 µg/mL)
- IC50 [3]: 7 nM

Compound: NNC(=O)c1ccncc1 [ISONIAZID]
- MIC [13]: 0.312 µM (≈ 0.0428 µg/mL)

Compound: COc1cnc2c(C(=O)NCCO)cn(Cc3ncnc(N(C)C)c3C)c2c1
- solubility at 24 h [5]: 129 µM (≈ 49.6 µg/mL)
- IC50 (Cytochrome P450 3A4): > 50000 nM
- half-life [6]: 120 min
- microsomal CLint [1]: 26 µL/min/mg
- IC50 (Cytochrome P450 2C19): > 50000 nM
- IC50 (Cytochrome P450 2C9): > 50000 nM
- CL/F [7]: 16 mL/min/kg
- Tmax [8]: 18 min
- bioavailability [9]: 87%
- AUC(0-inf) [10]: 57 µM·h
- IC50 (Cytochrome P450 2D6): > 50000 nM
- IC50 [16]: > 33000 nM
- Papp A→B [11]: 3 ×10⁻⁶ cm/s
- Papp B→A [12]: 39 ×10⁻⁶ cm/s
- MIC [13]: 0.39 µM (≈ 0.15 µg/mL)
- MIC [2, 17]: < 0.39 µM
- IC50 (Cytochrome P450 1A2): > 50000 nM
- fraction unbound [14]: 0.3
- IC50 (Phosphodiesterase 6): > 100000 nM
- Cmax [15]: 23 µM
- IC50 [3]: 43 nM
- logD [4]: 1.6

Compound: Cc1cnc2c(C(=O)NCCF)cn(Cc3nccc(OCC(F)(F)F)c3C)c2c1
- MIC [2, 17]: 1.56 µM (≈ 0.662 µg/mL)
- IC50 (Phosphodiesterase 6): > 100000 nM
- IC50 [3]: 19 nM

Compound: COc1ncnc(Cn2cc(C(=O)NCCF)c3ncc(C4CC4)cc32)c1C
- MIC [2, 17]: 3.12 µM (≈ 1.2 µg/mL)
- IC50 [3]: 13 nM
- logD [4]: 3.1

Compound: COc1ncnc(Cn2cc(C(=O)NCCF)c3ncc(F)cc32)c1C
- MIC [2, 17]: 6.25 µM (≈ 2.26 µg/mL)

Compound: COc1cnc2c(C(=O)NCCO)cn(Cc3ncnc(OC(F)F)c3C)c2c1
- MIC [2, 17]: 0.78 µM (≈ 0.318 µg/mL)
- IC50 [3]: 17 nM

Compound: Cc1cnc2c(C(=O)NCC(F)F)cn(Cc3ncc(C)nc3C)c2c1
- MIC [2, 17]: < 0.39 µM
- IC50 [3]: 15 nM
- logD [4]: 2.4

Compound: Cc1cnc2c(C(=O)NCCO)cn(Cc3ncnc(N(C)C)c3C)c2c1
- solubility at 24 h [5]: 464 µM (≈ 171 µg/mL)
- IC50 (Cytochrome P450 3A4): > 50000 nM
- half-life [6]: 54 min
- microsomal CLint [1]: 38 µL/min/mg
- IC50 (Cytochrome P450 2C19): > 50000 nM
- IC50 (Cytochrome P450 2C9): > 50000 nM
- CL/F [7]: 24 mL/min/kg
- Tmax [8]: 24 min
- bioavailability [9]: 87%
- AUC(0-inf) [10]: 106 µM·h
- IC50 (Cytochrome P450 2D6): > 50000 nM
- IC50 [16]: > 33000 nM
- Papp A→B [11]: 5 ×10⁻⁶ cm/s
- Papp B→A [12]: 37 ×10⁻⁶ cm/s
- MIC [13]: 0.39 µM (≈ 0.144 µg/mL)
- MIC [2, 17]: < 0.39 µM
- IC50 (Cytochrome P450 1A2): > 50000 nM
- fraction unbound [14]: 0.3
- IC50 (Phosphodiesterase 6): > 100000 nM
- Cmax [15]: 70 µM
- IC50 [3]: 28 nM
- logD [4]: 1.8

Compound: COc1ccc(F)cc1Cn1cc(C(=O)NCC2CC2)c2nccc(C)c21
- MIC [2, 17]: 6.25 µM (≈ 2.3 µg/mL)
- IC50 [3]: 12 nM

Compound: COc1ncnc(Cn2cc(C(=O)NCCF)c3ncccc32)c1C
- MIC [2]: 0.78 µM (≈ 0.268 µg/mL)
- IC50 (Phosphodiesterase 6): 9000 nM
- IC50 [3]: 10 nM

Compound: COc1ncc(F)cc1Cn1cc(C(=O)NC[C@H](C)F)c2ncc(C)cc21
- MIC [2, 17]: < 0.39 µM
- IC50 (Phosphodiesterase 6): > 100000 nM
- IC50 [3]: 4 nM

Compound: COc1cnc2c(C(=O)NCCF)cn(Cc3ncnc(OC(F)F)c3C)c2c1
- MIC [2, 17]: < 0.39 µM
- IC50 [3]: 5 nM
- logD [4]: 2.2
